Data: patent US20140106967A1, “AUXIN PLANT GROWTH REGULATORS” (The Governors of The University of Alberta, priority 2011, published 2014)

What was measured:
[1] = test system: Pisum sativum L. cv. Carneval; assay: Growth chamber pea study: one 4-ME-IAA spray, heat-stressed and non-stressed plants (Tables 1, 2); assay type: in vivo; design: more pods per plant with mature seeds than control / increase in number of seeds per plant vs control / increase in total seed weight per plant vs control: tested at 1 µM
Text: ‘Carneval’ (Pisum sativum L.) was chosen as a model cultivar as a semi-dwarf (semi-leafless; an field pea which is used extensively in crop agriculture. ‘Carneval’ has white flowers and yellow cotyledons at maturity, begins to flower at about the 15 to 17th node under long day conditions. Seeds of ‘Carneval’ were planted at an approximate depth of 2.5 cm in 3-L plastic pots (4 seeds per pot and thinned to 2 plants per pot after approximately 2 weeks) in 1:1 Sunshine #4 potting mix (Sun Gro Horticulture, Vancouver, Canada) and sand. Approximately 15 cc of slow-release fertilizer (14-14-14) was added to the potting mix at planting. The experiment was arranged in a completely randomized design and grown at the University of Alberta in a growth chamber set at 19° C./17° C. (day/night) with a 16/8-h photoperiod under cool-white fluorescent lights (F54/15/835/HO high fluorescent bulbs, Phillips, Holland; 350 μE m^2 s^−2, measured with a LI-188 photometer, Li-Cor Biosciences, Lincoln, Nebr.). For the heat stress treatment, plants were placed in a separate growth chamber with a 16/8-h photoperiod under cool-white fluorescent lights (F54/15/835/HO high fluorescent bulbs, Phillips, Holland) for 4 days where the temperature was cycled over a 24 hr period as follows: 34° C. air temperature for 6 hours per day (between 11:00 and 17:00 hrs) for 4 days during the light cycle; the remainder of the light cycle was maintained at a 22° C. air temperature; the dark cycle was maintained at 19° C. After the 4 day heat treatment, the plants were returned to the same growth chamber they were originally grown in, where they were taken to maturity. One application of 4-ME-IAA (1 μM in 0.1% Tween 80) or 0.1% Tween 80 (control) was applied as a spray to the entire plant to cover when the first flowering node of the main stem was at the flower bud or full bloom stage. For the heat stress treatment, the hormone or control application was completed 16 hrs prior to the initiation of the first heat-stress cycle.

[2] = test system: Pisum sativum L. cv. Carneval; assay: Field study, seed yield of pea 'Carneval' (Table P1); assay type: in vivo; details: for Seed yield per 1 meter row: sprayed at about 5% first flower
Text: In a field study, pea (Pisum sativum L. cv. Carneval) seed with a germination rate assessed at greater than 95% was planted on May 11, 2011 into black-loam soil that had been clean-cultivated for two previous growing seasons located at the Edmonton Research Station (ER31) of the University of Alberta, Edmonton, Alberta, Canada. The treatment plots measured 2 m wide by 3 m long, comprising rows 50 cm apart. The seeds were precision-drilled by hand at 5 cm intervals in each row. At the time of seeding, fresh TagTeam® granular rhizobial inoculant was drilled with the seed at the rate of 1.11 g per 6 m^2. No herbicides or pesticides were used during this study and plots were manually weeded to maintain weed-free plots. Seed emergence began on May 26, 2011 (15 days post-planting) due to cool temperature conditions after planting. Precipitation during the growing season was within the regional average. The treatments consisted of one application of aqueous 4-methyl-indole-3-acetic acid (4-ME-IAA) solutions at 1×10^−6M, 1×10^−5M, 5×10^−5M, or 1×10^−4M in 0.1% (v/v) Tween 80, or an aqueous control solution (0.1% [v/v] Tween 80) applied to the plants on Jul. 10, 2011, when about 5% of the plants were in first flower (1 treatment per plot; 5 treatments/plots total). A separate Chapin 20000-type 4 L pneumatic sprayer was used for applying each treatment solution; each sprayer was equipped with a medium-delivery blue fan nozzle designed to deliver 1.4 L per minute at the normal operating pressure of 40 PSI. Each plot was sprayed with a total of 0.7 L of solution to obtain uniform coverage. At the time of spraying, the mean day temperature was 15.9° C., the mean wind speed was 7 km/h, the relative humidity was 86%, and the sky was overcast. Harvesting (by hand) took place Aug. 27 to 30, 2011 after the plants had desiccated naturally. The pods were further dried for six days in a forced-air drier at 30° C. prior to obtaining seed weights. Each plot was harvested in eight groups of 20 contiguous plants arranged so that each group (1 m section of row) had at least two plants immediately next to it at each end. The treatment replication unit was 20 contiguous plants as diagramed in Figure P1. As the between-row spacing was 50 cm, the yield from each group represented that from 0.5 m^2

[3] = 1 μM, non-heat stressed, at plant maturity
[4] = non-stressed, at plant maturity

Structure (SMILES): Cc1cccc2[nH]cc(CC(=O)O)c12 [4-ME-IAA, 4-methyl-indole-3-acetic acid]
- plant maturation (dry-down), FIG. 3 ([1]; 1 μM in 0.1% Tween 80, 34 days after spray): stimulated maturation of the plant
- Number of pods per plant [1, 3]: 14.9 ± 0.6
- Number of seeds per plant [1, 3]: 57.6 ± 3.5
- Number of stems/stems with pods per plant [1, 3]: 1.1 ± 0.1
- Total seed weight per plant [1, 3]: 13.56 ± 0.64 g
- Weight per seed [1, 3]: 0.24 ± 0.01 g
- Number of pods with developing seeds per plant ([1]; Heat-stressed (34° C. 6 h/day, 4 days), 1 μM in 0.1% Tween 80, 16 hr before heat, 9 to 10 days after removal from heat treatment): 10.6 ± 0.8
- Number of pods with developing seeds per plant ([1]; Non-stressed (19° C./17° C.), 1 μM in 0.1% Tween 80, 9 to 10 days): 15.4 ± 0.6
- increase in pod retention vs control ([1]; heat-stress conditions, 9-10 days after application): 112%
- pod retention, FIG. 2 ([1]; non-stressed and heat-stress conditions, 9-10 days after application): increased pod retention
- increase in pod retention vs control ([1]; non-stressed conditions, 9-10 days after application): 41%
- Weight per seed [1, 4]: 240 mg per seed
- increase in number of seeds per plant vs control [1, 4]: 39%
- increase in total seed weight per plant vs control [1, 4]: 23%
- more pods per plant with mature seeds than control [1, 4]: 42%
- increase in seed yield vs control ([2]; 1×10^−4 M): 28%
- Seed yield per 1 meter row ([2]; 1×10^−4 M): 123.20 ± 9.19 g
- Seed yield per 1 meter row ([2]; 1×10^−5 M): 105.63 ± 10.72 g
- increase in seed yield vs control ([2]; 1×10^−6 M): 43%
- Seed yield per 1 meter row ([2]; 1×10^−6 M): 137.84 ± 10.16 g
- Seed yield per 1 meter row ([2]; 5×10^−5 M): 78.85 ± 12.06 g
